What is called half-life is the time in which the quantity being followed falls by half.

Like-named read-outs stand apart in the source and are kept apart here.

For data set [1] the following is noted: human, cells or culture medium.
Description: The percentage of acid phosphatase activity in each fraction was used to determine the number of cells that yielded endolysosomes in each fraction. […] The disappearance of the peptide was monitored by RP-HPLC, where the amount of peptide is proportional to the surface area under its peak. Upon degradation the peak area reduced and additional peaks corresponding to degradation products appeared [15].
(§1) We performed a degradation assay as mentioned in Figure 1 and analyzed the peptide fragments produced by mass spectrometry. We compared the degradation of a longer HIV peptide relevant to antigen processing and peptide-based immunogens with crude lysate and purified endolysosomes at pH 5.5 (late endosomal pH) and 4.0 (lysosomal pH) [26]. […] The products of the degradation after a 60-minute incubation with either crude lysate or purified endolysosomes at pH 4.0 and 5.5 were identified by mass spectrometry. […] We compared by mass spectrometry the identity and corresponding peak sirface intensities of all peptides produced in purified endolysosomes and in crude lysate at pH 4 and 5.5 (Additional file 3: Figure S3A).
(§2) Endolysosomes were purified from crude PBMC lysate by differential centrifugation. PBMCs were isolated from human buffy coats using Ficoll centrifugation [29]. Cells resuspended in extraction buffer at a concentration of 5 × 10^8 cells/ml [30] were lysed using glass beads as in a previous study done in our laboratory [31]. The cell lysate was centrifuged at 1000g for 10 min at 4°C. The supernatant was transferred to a new tube and centrifuged at 20,000 g for 20 min at 4°C. The resulting pellet consists of endoplasmic reticulum, mitochondria and endolysosomes. The supernatant corresponds to purified cytosolic fraction. […] 120 μl fractions were collected and further analyzed for endolysosomal enrichment.
The assay is adapted from previously published studies from our laboratory [31]. […] Another 50 μl of the degradation buffer was added to each sample and the amount of peptide remaining was analyzed by RP-HPLC.
A short description of data set [2]: Peptide degradation assay in purified cytosol from PBMC. In kind it is in vitro ADME. Conditions: human, s9, amount equivalent to endolysosomes (same number of cells), 8 nM peptide in degradation buffer (20 mM HEPES, 1 mM MgCl2, 137 mM K acetate, 1 mM ATP), 37°C, % original peptide remaining by RP-HPLC, representative of two replicates.
Description: The percentage of acid phosphatase activity in each fraction was used to determine the number of cells that yielded endolysosomes in each fraction. […] The disappearance of the peptide was monitored by RP-HPLC, where the amount of peptide is proportional to the surface area under its peak.
as §2
In studies involving purified endolysosome, an acid phosphatase assay was performed on the fractions and the amount of acid phosphatase activity was used to calculate the total number of cells from which each fraction was derived. […] Another 50 μl of the degradation buffer was added to each sample and the amount of peptide remaining was analyzed by RP-HPLC.
A short description of another data set: in vitro. The settings on record: human, cells or culture medium, pH 4.
Experiment in data set [3]: not given
The source holds these as a separate data set.

Protocol for in vitro: These degradation assays were performed in the presence of cathepsin inhibitors to identify specific cathepsins that played a role in antigen processing. […] The products of peptide degradation after 0, 10, 30 and 60 minutes of the reaction were analyzed by RP-HPLC and the percentage of remaining original peptide was quantified from the area under peak (Figure 3A). To rule out any effect of acidic pH on the peptides, the peptide was incubated for the same amount of time with the reaction buffer without any crude lysate and the peptide was quantified by RP-HPLC (Figure 3B). As mentioned in Figure 1D, a half-life of the peptide in the presence or absence of cathepsin can be calculated. […] Therefore, on fitting a one-phase exponential decay curve, we calculated the stability rate of the peptide at each pH (Figure 3C). […] The stability rate of the peptide without inhibitor was assigned a value of one and the fold change in the stability rate in the presence of inhibitors was calculated. […] The experiment was repeated using PBMC lysate from three different healthy donors and the average of three results are shown in Figure 3C.
as §1
8 nM of peptide was incubated with 30 μg of crude PBMC lysate in 250 μl of degradation buffer (20 mM HEPES, 1 mM magnesium chloride, 137 mM potassium acetate, 1 mM ATP) that was adjusted to the appropriate pH. In studies involving purified endolysosome, an acid phosphatase assay was performed on the fractions and the amount of acid phosphatase activity was used to calculate the total number of cells from which each fraction was derived. Using this approach, equivalent amount of cytosol and endolysosome that were derived from the same number of cells were used in peptide degradation assays. […] When using inhibitors, the compound was added to the crude lysate before addition of the peptide and incubated at room temperature for 30 minutes. […] Another 50 μl of the degradation buffer was added to each sample and the amount of peptide remaining was analyzed by RP-HPLC. […]

On to `CC[C@H](C)[C@H](NC(=O)[C@@H](NC(=O)[C@H](CCC(=O)O)NC(=O)[C@@H]1CCCN1C(=O)[C@H](CO)NC(=O)[C@H](Cc1ccccc1)NC(=O)[C@H](C)NC(=O)[C@@H](N)CCCCN)C(C)C)C(=O)N1CCC[C@H]1C(=O)N[C@@H](CCSC)C(=O)N[C@@H](Cc1ccccc1)C(=O)O` [B57KF11], for which the figures for the half-life (in data set [1]; in “in vitro”) were 8 min and 6 min, respectively. Moreover, for the setting “purified endolysosomes, pH 4.0, 37°C, RP-HPLC, data not shown”, the “half-life of the peptide in endolysosomes at pH 4.0” value was 8 min. Moreover, the half-life at 8 nM in data set [2] turned out to be 36 min.
On to KVVEEKAFSPEVIPMFAAL [5-KF11-3], for which the “number of peptide fragments identified after degradation in endolysosomes” value (pH 4) was 39 peptides. Also, in data set [3] (pH 4), the “fragments of the crude lysate degradation similar to those produced in endolysosomes, pH 4.0” value came to 84.75% and the “number of peptide fragments identified after degradation in crude lysate” value is listed as 32 peptides. For the same compound, the “fragments of the crude lysate degradation similar to the endolysosomal fraction, pH 5.5” value in data set [3] (pH 5.5) turned out to be 76.2%.
